Source: ChEMBL document CHEMBL4689842, “EUbOPEN Chemogenomics Library wave 1” (2021)
Where a SMILES comes first, the peptide text is derived from it. [ ]: non-standard residue; d: D form. Arg(Me) = CNC(=N)NCCC[C@H](N)C(=O)O; d4Pal = N[C@H](Cc1ccncc1)C(=O)O; azaGly = NNC(=O)O

Legend:
Assay type in all cases: toxicity, cell-based
[1] = system: HEK-293T; assay: Incucyte cell viability with HEK293T; conditions: human, 10 µM, compound concentration 10 uM
[2] = system: Fibroblast; assay: Incucyte cell viability with human fibroblast; conditions: 10 µM, compound concentration 10 uM
[3] = system: U2OS; assay: Incucyte cell viability with U2OS; conditions: human, 10 µM, compound concentration 10 uM
[4] = 0 h, replicate number 1, timepoint 0 hours
[5] = 6 h, replicate number 1, timepoint 6 hours
[6] = 12 h, replicate number 1, timepoint 12 hours
[7] = 12 h, replicate number 2, timepoint 12 hours
[8] = 18 h, replicate number 1, timepoint 18 hours
[9] = 24 h, replicate number 1, timepoint 24 hours
[10] = 0 h, replicate number 2, timepoint 0 hours
[11] = 6 h, replicate number 2, timepoint 6 hours
[12] = 24 h, replicate number 2, timepoint 24 hours
[13] = 18 h, replicate number 2, timepoint 18 hours
Also: filed as whole numbers so only -1 and 0 and 1 occur.

SMILES | Growth Rate [1, 4] | Growth Rate [1, 5] | Growth Rate [1, 6] | Growth Rate [1, 8] | Growth Rate [1, 9] | Growth Rate [2, 4] | Growth Rate [2, 5] | Growth Rate [2, 6] | Growth Rate [2, 8] | Growth Rate [2, 9] | Growth Rate [3, 10] | Growth Rate [3, 11] | Growth Rate [3, 6] | Growth Rate [3, 8] | Growth Rate [3, 9] | Growth Rate [1, 11] | Growth Rate [1, 12] | Growth Rate [3, 4] | Growth Rate [3, 13] | Growth Rate [3, 12] | further results
CNC(=N)NCCC[C@H](NC(=O)[C@H](CC(C)C)NC(=O)NNC(=O)[C@H](Cc1ccccc1)NC(=O)[C@H](CO)NC(=O)[C@H](CC(N)=O)NC(=O)[C@@H](Cc1ccncc1)NC(=O)[C@H](N)Cc1ccc(O)cc1)C(=O)N[C@@H](Cc1ccccc1)C(N)=O [KISS1-305] (H-[dY][d4Pal]NSF[azaGly]L[Arg(Me)]F-NH2) | 0 | 0 | 1 | 0 | 0 | 0 | 0 | 0 | 0 | 0 | 0 | 1 | 1 | 0 | 0 | – | – | – | – | – | Growth Rate [1, 7]: 0
CCc1cc(C(C)=O)c(O)cc1OCCCCCC(C)(C)c1nn[nH]n1 [LY-255283] | 0 | 1 | 0 | 0 | 0 | 0 | 0 | 0 | 0 | 0 | – | 0 | 1 | 1 | 1 | 0 | 1 | 0 | 0 | 0 | Growth Rate [3, 7]: 0
COc1ccc(CNC(=O)c2cc(-c3cncc(Cl)c3)cnc2-c2ccccn2)nc1OC [MK-1064] | 0 | 0 | 1 | 0 | 1 | 0 | 0 | 0 | 1 | 0 | – | 0 | 1 | 1 | 1 | – | 0 | 0 | 0 | – | Growth Rate [1, 7]: 0; Growth Rate [2, 12]: 1
CN([C@@H]1CCc2c(CC(=O)O)c3ccccc3n2C1)S(=O)(=O)c1ccc(F)cc1 [MK-7246] | 0 | 0 | 0 | 0 | 0 | 0 | 0 | 0 | 0 | 0 | – | 0 | 1 | 1 | 0 | 1 | 1 | 0 | – | 1 | Growth Rate [1, 13]: 1; Growth Rate [2, 7]: 1; Growth Rate [2, 13]: 1
Cc1cc(Nc2nccc(C)n2)cc(-c2cnc([C@@]3(O)CC[C@H](C(=O)O)C(C)(C)C3)s2)c1 [MRL-SYKi] | – | 0 | 0 | 0 | 0 | – | 0 | 0 | 0 | 1 | – | – | 0 | 0 | 0 | – | – | 0 | 1 | – | Growth Rate [2, 10]: 1; Growth Rate [2, 12]: 0; Growth Rate [3, 5]: 0
CC(=O)Nc1c(C(C)=O)c(=O)n(C)c2nc(-c3ccc(Cl)cc3Cl)c(-c3ccc(Cl)cc3)cc12 [NAPHTHYRIDINONE] | 0 | 0 | 0 | 0 | 0 | 0 | 1 | 0 | 0 | 0 | 0 | 1 | 0 | 0 | 0 | 1 | – | – | 1 | 1 | Growth Rate [2, 11]: 0
Nc1nc(NCc2ccccc2)nc(-c2ccccc2CO)n1 [Ogerin] | 1 | 0 | 1 | 1 | 0 | 1 | 0 | 0 | 0 | 0 | 0 | 1 | 1 | 1 | 1 | 1 | 1 | – | – | – | Growth Rate [1, 10]: 0
COc1ccc(C2(O)OC(=O)C(c3ccc4c(c3)OCO4)=C2Cc2cc(OC)c(OC)c(OC)c2)cc1 (stereo not given) [PD-156707] | 0 | 1 | 1 | 0 | 0 | 1 | 0 | 0 | 0 | 0 | 1 | – | 0 | 0 | 0 | 0 | – | – | 1 | 1 | Growth Rate [1, 7]: 0; Growth Rate [2, 10]: 0; Growth Rate [2, 13]: 1; Growth Rate [2, 12]: 1; Growth Rate [3, 5]: 1; Growth Rate [3, 7]: 1
CN(c1ccnc(CNc2nc(Nc3ccc4c(c3)CC(=O)N4)ncc2C(F)(F)F)n1)S(C)(=O)=O [PF-00911705] | – | 0 | 0 | 0 | 0 | 0 | – | 1 | 0 | 1 | 0 | – | 0 | 0 | 0 | – | – | – | – | – | Growth Rate [2, 11]: 0; Growth Rate [2, 7]: 0; Growth Rate [2, 12]: 0; Growth Rate [3, 5]: 0
COc1ccc2cc(OCC3(C(=O)O)CN(C(=O)c4ccc(F)cc4)C3)ccc2c1 [PF-04418948] | 0 | 1 | 1 | 1 | 1 | 0 | 0 | 0 | 0 | 0 | – | 0 | 1 | 1 | 1 | 0 | – | 0 | 0 | 0 | Growth Rate [1, 13]: 0; Growth Rate [2, 11]: 1; Growth Rate [2, 13]: 1; Growth Rate [2, 12]: 1; Growth Rate [3, 7]: 0
O=C(c1ccc(F)cc1)N1CC(COc2ccc(Br)cc2)(C(=O)O)C1 [PF-04475866] | 0 | 1 | 1 | 0 | 1 | 0 | – | – | – | 1 | 0 | – | 1 | 0 | 1 | 0 | 0 | 1 | 1 | – | Growth Rate [1, 7]: 0; Growth Rate [2, 13]: 1; Growth Rate [3, 5]: 1
C[C@H](c1ccc(F)cc1)N(Cc1ccc(Cl)c(C(=O)O)c1)C(=O)c1cnc2ccccc2c1 [PF-05257137] | 1 | 0 | 0 | 0 | 1 | 0 | – | – | – | 1 | – | – | 1 | 1 | 1 | – | 0 | 0 | – | – | Growth Rate [1, 10]: 0; Growth Rate [2, 11]: 0; Growth Rate [2, 7]: 1; Growth Rate [2, 13]: 1
C[S+]([O-])c1ccc(-c2nc(-c3ccncc3)c(-c3ccc(F)cc3)[nH]2)cc1 (stereo not given) [SB-203580] | 0 | 0 | 0 | 0 | 0 | 0 | – | – | – | – | – | 0 | – | 1 | 1 | – | – | – | – | – | Growth Rate [2, 11]: 0; Growth Rate [2, 7]: 1; Growth Rate [2, 13]: 1; Growth Rate [2, 12]: 1; Growth Rate [3, 7]: 1
Cc1cc(F)c(C(=O)Nc2cccc(-c3nncn3C(C)C)n2)cc1-n1cnc(C2CC2)c1 [SELONSERTIB] | – | 0 | 0 | 0 | 0 | 0 | – | 1 | 1 | 1 | – | – | 0 | 0 | 1 | – | – | 0 | – | 0 | Growth Rate [1, 10]: 1; Growth Rate [3, 5]: 0
Cn1cnc2c(F)c(Nc3ccc(Br)cc3Cl)c(C(=O)NOCCO)cc21 [SELUMETINIB] | 0 | – | – | – | 1 | 0 | – | – | – | 1 | – | – | 0 | 0 | 0 | – | – | 1 | – | – | Growth Rate [1, 10]: 1; Growth Rate [1, 7]: 1; Growth Rate [3, 5]: 0
